The nature of experiment [1]: Cytotoxicity against mouse EAC cells after 24 hrs by MTT assay. It is filed as functional, cell-based. As to conditions: Ehrlich.
The next experiment has as its system PBMC. Put plainly: Cytotoxicity against human PBMCs after 24 hrs by MTT assay. The class given is cell-based. On the technique in general: Tetrazolium assays rely on reduction of a dye to a coloured formazan, in cell work by metabolically active cells.
Another experiment relates to A-375. The experiment is described as follows: Cytotoxicity against human A375 cells after 24 hrs by MTT assay. It is filed as functional, cell-based. As to conditions: A-375, 24 h.
For another experiment, the system named is HEp-2. Put plainly: Cytotoxicity against human Hep2 cells after 24 hrs by MTT assay. The class given is functional, cell-based. Particulars: HEp-2, 24 h.

Where only a bound is given, the exact number is not on record here.

Consider `COc1cc(C)cc2c1C(=O)C=C(c1c(C)cc3c(c1OC)C(=O)C=CC3=O)C2=O`, for which the concentration for half-maximal inhibition (IC50) in experiment [1] stood at 650 nM; in the experiment on PBMC, 53300 nM; in the experiment on A-375, 200 nM; with HEp-2 it was 390 nM.
In the same order, the values of `CCOc1cc(C)cc2c1C(=O)C=C(c1c(C)cc3c(c1OCC)C(=O)C=CC3=O)C2=O` are 580 nM, 55500 nM, 1070 nM and 2390 nM.
The like results for `COc1cc(C)cc2c1C(=O)C=C(c1c(C)cc3c(c1OC)C(=O)C(NCCO)=CC3=O)C2=O` were, in that order, 1070 nM, 21800 nM, 3180 nM and 1410 nM.
For the molecule `CCOc1cc(C)cc2c(O)c(-c3c(C)cc4c(O)ccc(O)c4c3OCC)cc(O)c12`, the IC50 in experiment [1] was 390 nM; in the experiment on PBMC, 59600 nM; in the experiment on A-375, 960 nM; in the experiment on HEp-2, 1670 nM.
Regarding `COc1cc(C)cc2c1C(=O)C=C(c1c(C)cc3c(c1OC)C(=O)C(SCCO)=CC3=O)C2=O`, the IC50 stood at 260 nM in experiment [1], 95500 nM with PBMC, 190 nM with A-375 and 1730 nM with HEp-2.
With `CCOc1cc(C)cc2c1C(=O)C=C(c1c(C)cc3c(c1OCC)C(=O)C(NCCO)=CC3=O)C2=O`, the IC50 in experiment [1] stood at 30 nM; with PBMC it was 65400 nM; with A-375, 70 nM; in the experiment on HEp-2, 850 nM.
As for `COc1cc(C)cc2c1C(=O)C1OC1(c1c(C)cc3c(c1OC)C(=O)C1OC1C3=O)C2=O` (stereo unspecified), the IC50 in experiment [1] came to 90 nM; with PBMC it was 98200 nM; in the experiment with A-375, 30 nM; in the experiment on HEp-2, 210 nM.
Turning to `Cc1cc(O)c2c(c1)C(=O)C(c1c(C)cc3c(c1O)C(=O)C=CC3=O)=CC2=O` [DIOSPYRIN], the IC50 in experiment [1] worked out at 840 nM; with PBMC, 78300 nM; in the experiment with A-375 it was 820 nM; with HEp-2, 3580 nM.
The like results for `COc1cccc2c1C(=O)c1c(O)c3c(c(O)c1C2=O)C[C@@](O)(C(=O)CO)C[C@@H]3O[C@H]1C[C@H](N)[C@H](O)[C@H](C)O1` [DOXORUBICIN] were, in that order, more than 10000 nM, 15500 nM, 10 nM and 420 nM.

In general, IC50 refers to the concentration needed to halve the response being measured. Lower therefore signals higher potency.

Source of the values: ChEMBL document CHEMBL1147954, “Synthesis and antiproliferative activity of some novel derivatives of diospyrin, a plant-derived naphthoquinonoid” (Bioorg Med Chem, 2007).
